According to patent EP0443862A1, “Triamine derivatives and their acid-addition salts” (SUMITOMO PHARMACEUTICALS COMPANY, LIMITED, priority 1990, dated 1991):

Tested on: NMDA-induced tonic convulsion
Test: Inhibition of NMDA-induced tonic convulsion in mice
Assay type: in vivo
Conditions: Mus musculus, ip, 0.5 h, i.p., 30 minutes before NMDA injected intracerebroventicularly, read-out: Inhibition potency of NMDA-induced tonic convulsion (ED50; mg/kg, i.p.)
Experimental: A test compound was injected intraperitoneally in mice. After 30 minutes from the administration, NMDA was injected intracerebroventicularly, and it was observed whether there was a tonic convulsion. ED₅₀ (mg/kg, i.p.) was calculated out from the inhibition rates.

Compound	ED50
c1cnc2c(NCCNCCNc3cccc4cccnc34)cccc2c1 [Example 1]	16.4 mg/kg
c1ccc2c(NCCNCCNc3cccc4ccccc34)cccc2c1 [Example 2]	> 30 mg/kg
c1cc2c(c(NCCNCCNc3cccc4c3CCCC4)c1)CCCC2 [Example 3]	> 30 mg/kg
c1ccc2c(NCCCNCCNc3cccc4ccccc34)cccc2c1 [Example 4]	> 30 mg/kg
Clc1ccc(NCCNCCNc2ccc(Cl)c3ccccc23)c2ccccc12 [Example 5]	24.8 mg/kg
